Results on three compounds are retold here after paper PMC4605401 (Journal of pharmaceutical and biomedical analysis, 2009).

Assay [1] has as its target T1, histamine 1 receptor (H1R) (Homo sapiens, UniProt P35367). It is filed as binding. As to conditions: histamine subtype selectivity; data not shown.
Assay [2] addresses T1, histamine 1 receptor (H1R). As to conditions: cellular membrane binding studies; data not shown.
Assay [3] has as its target T1, histamine 1 receptor (H1R). Briefly: Frontal affinity chromatography, competitive displacement on CMAC. Type of assay: binding. As to conditions: CMAC(1321N1P2Y1); marker 50 pM [3H]-mepyramine; 10 μM 2-MeSADP in mobile phase.
Assay [4] has as its system P2Y1 receptor. The assay can be described thus: Frontal affinity chromatography on CMAC. Type of assay: binding, human.
Assay [5] has as its target P2Y1 receptor (Homo sapiens, UniProt P47900). The assay can be described thus: Frontal affinity chromatography, competitive displacement on CMAC. Type of assay: binding. As to conditions: CMAC(1321N1P2Y1); marker 1 nM [3H]-2-MeSADP; 1 μM mepyramine in mobile phase.

T1 sequence (P35367 whole entry): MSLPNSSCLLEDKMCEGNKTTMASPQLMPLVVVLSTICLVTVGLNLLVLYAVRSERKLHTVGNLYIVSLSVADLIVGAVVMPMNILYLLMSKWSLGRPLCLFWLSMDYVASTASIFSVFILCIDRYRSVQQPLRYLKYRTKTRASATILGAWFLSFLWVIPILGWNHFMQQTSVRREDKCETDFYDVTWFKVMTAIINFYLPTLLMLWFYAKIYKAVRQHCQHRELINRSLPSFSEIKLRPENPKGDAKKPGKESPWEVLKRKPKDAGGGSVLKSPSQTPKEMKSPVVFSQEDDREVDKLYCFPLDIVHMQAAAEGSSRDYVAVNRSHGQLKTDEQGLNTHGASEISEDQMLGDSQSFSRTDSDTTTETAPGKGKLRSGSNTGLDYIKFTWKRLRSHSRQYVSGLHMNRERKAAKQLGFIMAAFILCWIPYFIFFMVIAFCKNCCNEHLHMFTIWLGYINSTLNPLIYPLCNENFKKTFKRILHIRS
P2Y1 receptor (Homo sapiens, UniProt P47900), sequence (P47900 whole entry): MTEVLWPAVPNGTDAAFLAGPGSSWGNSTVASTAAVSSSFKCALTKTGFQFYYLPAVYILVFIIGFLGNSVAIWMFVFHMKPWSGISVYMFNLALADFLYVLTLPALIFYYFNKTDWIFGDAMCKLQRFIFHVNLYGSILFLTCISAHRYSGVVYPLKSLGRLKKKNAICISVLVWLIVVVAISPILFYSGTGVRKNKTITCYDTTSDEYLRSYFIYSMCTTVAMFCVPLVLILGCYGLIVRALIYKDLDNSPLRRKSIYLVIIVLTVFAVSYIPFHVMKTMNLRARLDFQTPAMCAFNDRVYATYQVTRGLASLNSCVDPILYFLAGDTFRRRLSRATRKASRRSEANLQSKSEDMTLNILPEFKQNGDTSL

Take 4-methylhistamine: the “specific retention on CMAC(1321N1) column” value in assay [1] is on record as “No specific retention”. The “specific binding to 1321N1 cellular membranes” value in assay [2] was “did not specifically bind”.
`CSc1nc(N)c2ncn([C@@H]3O[C@H](COP(=O)(O)OP(=O)(O)O)[C@@H](O)[C@H]3O)c2n1` [2-MeSADP]: the “effect on the breakthrough volume of mepyramine” value in assay [3] is on record as “no effect”. Also, the “CMAC(1321N1) Kd” value in assay [4] (P2Y1, non-transfected 1321N1 membranes) is listed as “No binding”. Further, the “specific retention on CMAC(1321N1) column” value in assay [4] ([3H]-2-MeSADP added to the mobile phase) is listed as “no specific retention”.
As to `COc1ccc(CN(CCN(C)C)c2ccccn2)cc1` [Mepyramine, mepyramine], the “effect on the breakthrough volume of 2-MeSADP” value in assay [5] was “no effect”.
